Assay results: ChEMBL document CHEMBL3991944, “Enantiomers of spiro-oxindole compounds and their uses as therapeutic agents” (2013)
≈ marks a conversion by molar mass, not a printed value. Calls of active or inactive are those of the source.

Legend:
Rattus norvegicus [1] = assay: Analgesic activity in rat model of CFA-induced chronic inflammatory pain assessed as reduction in nociceptive threshold at 200 mg/kg, po by Von Frey filament assay; format: functional, organism-based
Rattus norvegicus [2] = assay: Drug level in rat model of CFA-induced chronic inflammatory pain assessed as high plasma concentration at 200 mg/kg, po […]; format: ADME, organism-based; conditions: in vivo
Rattus norvegicus [3] = assay: Analgesic activity in rat model of chronic constriction injury-induced neuropathic pain assessed as reversal of pain response at 2% (w/v) administered topically as ointment measured upto 1 hr by electrovonfrey anesthesiometry; format: functional
[4] = target: Sodium channel protein type 9 subunit alpha (Homo sapiens) (UniProt Q15858); conditions: HEK293
[5] = Solubility of the compound in labrasol; format: physicochemical
[6] = Solubility of the compound in propylene glycol; format: physicochemical
[7] = Solubility of the compound in PEG 400; format: physicochemical
[8] = Solubility of the compound in capryol 90; format: physicochemical
[9] = Solubility of the compound in tween 80; format: physicochemical
[10] = Solubility of the compound in 60:40 of labrasol/PEG 400; format: physicochemical
[11] = Solubility of the compound in 60:40 of labrasol/capryol 90; format: physicochemical
[12] = Solubility of the compound in 60:40 of labrasol/transcutol; format: physicochemical
Rattus norvegicus [13] = assay: Analgesic activity in rat model of CFA-induced chronic inflammatory pain assessed as increase in Von Frey mechanical paw withdrawal threshold at 8% (w/v) administered topically by electrovonfrey anesthesiometry relative to baseline; format: functional
Homo sapiens [14] = assay: Analgesic activity in human assessed as dental pain relief at 500 mg administered as single dose measured 4 to 12 hrs post dose; format: functional
Homo sapiens [15] = assay: Toxicity in human assessed as serious adverse events at 4 to 8% (w/w) administered topically as ointment for 21 consecutive days during phase-1 clinical trial; conditions: topical_or_ocular
Homo sapiens [16] = assay: Toxicity in human assessed as mortality at 4 to 8% (w/w) administered topically as ointment for 21 consecutive days during phase-1 clinical trial; conditions: topical_or_ocular
Homo sapiens [17] = assay: Toxicity in human assessed as decrease in skin irritation at 4 to 8% (w/w) administered topically as ointment for 21 consecutive days during phase-1 clinical trial; conditions: topical_or_ocular
Homo sapiens [18] = assay: Toxicity in human assessed as decrease in skin irritation at 4 to 8% (w/w) administered topically as ointment for 21 consecutive days measured 7 days post last dose during phase-1 clinical trial; conditions: topical_or_ocular, 168 h
Homo sapiens [19] = assay: Toxicity in human assessed as change in pulse rate at 4 to 8% (w/w) administered topically as ointment for 21 consecutive days during phase-1 clinical trial; conditions: topical_or_ocular
Homo sapiens [20] = assay: Toxicity in human assessed as change in quiescent resting state at 4 to 8% (w/w) administered topically as ointment for 21 consecutive days during phase-1 clinical trial; conditions: topical_or_ocular
Homo sapiens [21] = assay: Toxicity in human assessed as change in QTc interval at 4 to 8% (w/w) administered topically as ointment for 21 consecutive days during phase-1 clinical trial; conditions: topical_or_ocular
Homo sapiens [22] = assay: Toxicity in human assessed as change in vital signs at 4 to 8% (w/w) administered topically as ointment for 21 consecutive days during phase-1 clinical trial; conditions: topical_or_ocular
Homo sapiens [23] = assay: Toxicity in human assessed as change in physical appearance at 4 to 8% (w/w) administered topically as ointment for 21 consecutive days during phase-1 clinical trial; conditions: topical_or_ocular
Homo sapiens [24] = assay: Toxicity in human assessed as change in laboratory assessments at 4 to 8% (w/w) administered topically as ointment for 21 consecutive days during phase-1 clinical trial; conditions: topical_or_ocular
Homo sapiens [25] = species on record: Homo sapiens; assay: Toxicity in human assessed as increase in discomfort at 0.1% compound solution for 4 consecutive days during phase-1 clinical trial

Chain of Sodium channel protein type 9 subunit alpha (Homo sapiens) (Q15858 whole entry, looked up): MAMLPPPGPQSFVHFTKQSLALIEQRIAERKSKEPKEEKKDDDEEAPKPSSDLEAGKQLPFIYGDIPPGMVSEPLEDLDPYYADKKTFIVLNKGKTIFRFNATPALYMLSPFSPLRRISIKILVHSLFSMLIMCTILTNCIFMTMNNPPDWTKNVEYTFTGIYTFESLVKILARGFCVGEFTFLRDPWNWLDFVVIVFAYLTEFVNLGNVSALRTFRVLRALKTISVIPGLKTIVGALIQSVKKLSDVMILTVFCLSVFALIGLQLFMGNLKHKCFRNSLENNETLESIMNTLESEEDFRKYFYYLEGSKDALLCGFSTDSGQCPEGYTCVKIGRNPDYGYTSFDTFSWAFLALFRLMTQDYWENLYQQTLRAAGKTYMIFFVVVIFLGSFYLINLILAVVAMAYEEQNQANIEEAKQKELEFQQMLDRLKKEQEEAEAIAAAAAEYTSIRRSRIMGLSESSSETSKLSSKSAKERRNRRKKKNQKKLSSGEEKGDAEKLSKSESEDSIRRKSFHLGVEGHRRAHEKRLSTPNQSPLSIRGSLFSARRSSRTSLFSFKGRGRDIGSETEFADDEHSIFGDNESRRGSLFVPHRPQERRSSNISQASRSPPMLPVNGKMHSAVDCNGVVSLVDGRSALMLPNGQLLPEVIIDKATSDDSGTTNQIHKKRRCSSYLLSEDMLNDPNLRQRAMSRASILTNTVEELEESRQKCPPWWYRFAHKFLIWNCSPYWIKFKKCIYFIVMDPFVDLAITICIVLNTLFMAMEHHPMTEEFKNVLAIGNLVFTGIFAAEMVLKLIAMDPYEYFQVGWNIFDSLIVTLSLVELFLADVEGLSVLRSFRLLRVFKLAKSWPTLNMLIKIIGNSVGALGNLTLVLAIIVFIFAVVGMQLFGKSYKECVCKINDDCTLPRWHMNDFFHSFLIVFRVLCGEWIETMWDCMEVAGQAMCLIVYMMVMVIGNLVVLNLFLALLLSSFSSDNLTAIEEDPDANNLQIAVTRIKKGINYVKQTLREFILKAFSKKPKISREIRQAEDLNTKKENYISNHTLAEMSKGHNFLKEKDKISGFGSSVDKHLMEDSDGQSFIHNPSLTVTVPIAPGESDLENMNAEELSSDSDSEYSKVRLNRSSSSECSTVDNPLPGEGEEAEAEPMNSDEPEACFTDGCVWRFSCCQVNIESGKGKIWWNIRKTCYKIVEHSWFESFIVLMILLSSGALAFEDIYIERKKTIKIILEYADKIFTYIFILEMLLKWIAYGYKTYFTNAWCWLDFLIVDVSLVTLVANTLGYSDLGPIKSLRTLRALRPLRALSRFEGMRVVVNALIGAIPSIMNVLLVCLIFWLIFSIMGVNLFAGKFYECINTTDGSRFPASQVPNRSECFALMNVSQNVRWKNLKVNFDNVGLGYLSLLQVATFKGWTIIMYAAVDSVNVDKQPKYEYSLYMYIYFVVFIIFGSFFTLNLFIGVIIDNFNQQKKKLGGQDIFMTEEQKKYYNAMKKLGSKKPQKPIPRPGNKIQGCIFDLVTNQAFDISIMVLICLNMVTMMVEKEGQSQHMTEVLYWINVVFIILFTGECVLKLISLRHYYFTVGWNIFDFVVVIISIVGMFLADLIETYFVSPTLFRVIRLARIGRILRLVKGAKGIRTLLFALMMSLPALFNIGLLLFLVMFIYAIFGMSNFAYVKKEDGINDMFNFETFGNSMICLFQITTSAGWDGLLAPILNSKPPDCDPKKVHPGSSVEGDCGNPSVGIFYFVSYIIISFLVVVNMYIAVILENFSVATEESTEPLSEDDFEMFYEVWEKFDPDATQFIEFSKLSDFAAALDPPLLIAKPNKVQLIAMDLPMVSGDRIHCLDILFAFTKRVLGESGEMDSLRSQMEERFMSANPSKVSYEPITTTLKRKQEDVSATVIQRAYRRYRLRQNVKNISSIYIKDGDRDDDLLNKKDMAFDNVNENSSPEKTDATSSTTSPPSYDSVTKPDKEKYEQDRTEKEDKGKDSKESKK

SMILES	Activity (Rattus norvegicus [1])	Activity (Rattus norvegicus [3])	Kr [4] [µM]	solubility [5] [mg/mL]	solubility [7] [mg/mL]	solubility [8] [mg/mL]	solubility [9] [mg/mL]	solubility [10] [mg/mL]	solubility [11] [mg/mL]	solubility [12] [mg/mL]	other results
O=C1N(Cc2ccc(C(F)(F)F)o2)c2ccccc2[C@@]12COc1cc3c(cc12)OCO3	Active	inactive	> 10	–	–	–	–	–	–	–	Drug uptake (Rattus norvegicus [2]): Active
O=C1N(Cc2ccc(C(F)(F)F)o2)c2ccccc2C12COc1cc3c(cc12)OCO3 (configuration not stated)	–	Active	> 10	72.5 (≈ 169 mM)	< 50	18.1 (≈ 42.2 mM)	64 (≈ 149 mM)	70.4 (≈ 164 mM)	44.4 (≈ 103 mM)	74.2 (≈ 173 mM)	solubility [6]: 2.7 mg/mL (≈ 6.29 mM)
O=C1N(Cc2ccc(C(F)(F)F)o2)c2ccccc2[C@]12COc1cc3c(cc12)OCO3 [FUNAPIDE]	Active	Active	> 10	231 (≈ 538 mM)	> 55	96 (≈ 224 mM)	> 123	182 (≈ 424 mM)	191 (≈ 445 mM)	186 (≈ 433 mM)	Activity (Rattus norvegicus [13]): 45.06 - 45.1%; Activity (Homo sapiens [14]): Active; Activity (Homo sapiens [15]): Non-Toxic; Activity (Homo sapiens [16]): Non-Toxic; Activity (Homo sapiens [17]): Non-Toxic; Activity (Homo sapiens [18]): Non-Toxic; Activity (Homo sapiens [19]): Non-Toxic; Activity (Homo sapiens [20]): Non-Toxic; Activity (Homo sapiens [21]): Non-Toxic; Activity (Homo sapiens [22]): Non-Toxic; Activity (Homo sapiens [23]): Non-Toxic; Activity (Homo sapiens [24]): Non-Toxic
CCCCCCCCCCCCOS(=O)(=O)[O-].[Na+] [SODIUM LAURYL SULFATE]	–	–	–	–	–	–	–	–	–	–	Activity (Homo sapiens [25]): Toxic
